The values below come from patent US9937154B2, “Use of telmisartan to prevent and treat graft versus host disease and other alloimmune and autoimmune diseases” (Hackensack University Medical Center, priority 2015, dated 2018).

For series [1], the target named is human ROCK I (Homo sapiens, UniProt Q13464). Particulars: cited from earlier work.
Series [2] deals with T1, ROCK II (Homo sapiens, UniProt O75116). The note with it: cited from earlier work.
Series [3] concerns rat models of inflammatory and noninflammatory arthritic pain. The note with it: cited from earlier work.
The subject of series [4] is C3B6 mice (GVHD model). The series is described as follows: GVHD-associated weight loss and diarrhea in C3B6 mice. It is filed as in vivo, mouse. As to the method:
It is well known that weight loss occurs in patients with GVHD. Jacobsohn D A, et al., Bone Marrow […]. 29(3): 231-236 (2002). […] C3B6 mice were treated according to Example 1. […] Despite the similar initial weight losses of Fasudil® treated and untreated T cell recipients, the two groups had different rates of diarrhea. […] Diarrhea resolved by the fourth week among survivors in both groups.

Series [5] concerns C3B6 mice (GVHD model). The series is described as follows: GVHD-associated skin inflammation in C3B6 mice. It is filed as in vivo, mouse. The note with it: ATBM+T cells+Fasudil recipient mice. How it is done: Skin is most commonly affected and usually the first organ involved in GVHD. Ferrara J L M, et al., Lancet. 373(9674): 1550-1561 (2009). In this study, C3B6 mice were used to determine the effect of ROCK inhibitors on GVHD-associated skin inflammation.
C3B6 mice were treated according to Example 1. […] . Skin inflammation in C3B6 treated mice occurred in the fourth week and gradually waned over a two week-period.

Series [6] has as its system responding splenocytes from C3B6 hosts. The series is described as follows: mouse IFN-γ ELISPOT after one-way mixed lymphocyte reaction of host splenocytes. It is filed as cell-based. How it is done: Classically, a MLR is carried out by co-incubating lymphocytes from two strains that differ in histocompatibility genes for several days, and the proliferative response of T cells of one lymphocyte population to histocompatibility antigens of the other then measured.
Secretion of IFN-γ by responder cells in a MLR was used as an indicator of cytotoxic T lymphocyte function (i.e., alloreactivity). Briefly, spleens from C3B6 mice treated according to Example 1 were harvested at day 10 (C3H donor T cells migrating to the spleen with few de novo generated T cells emigrating from the host thymus) or at day 84 (spleens containing newly generated T cells maturing within the host thymus; i.e., allotolerant of host B6 parental antigens) post-transplant for use as responders. Spleens from C3H, C3B6 and DBA mice (Jackson Laboratory) were harvested for use as stimulators. Spleens were homogenized and the cells were washed twice with Phosphate Buffered Saline (PBS) (Sigma Aldrich, St. Louis, Mo., Catalog No. P5493, or equivalent). Red blood cells were separated from lymphocytes using Ficoll®. Briefly, cells were transferred to 50 mL conical tubes containing 15 mL of Ficoll®-Paque PLUS (GE Healthcare, Waukesha, Wis., Catalog No. 17-1440-03) and centrifuged at 800 rcf (1,900-2,000 rpm) for 20 minutes with centrifuge break off. After centrifugation, the buffy coat layer (containing lymphocytes) was removed and transferred to a new 50 mL conical tube. Phosphate-buffered saline (PBS) without calcium and magnesium (Gibco, Life Technologies, Carlsbad, Calif., Catalog No. 10010-023 or equivalent) was added to the buffy coat layer so that the total volume in the conical tube is equal to 50 mL. The buffy coat layer in PBS was centrifuged at 250 rcf (1,200 rpm) for 10 minutes with centrifuge brake applied. After centrifugation, the PBS was aspirated and the lymphocyte pellet was resuspended in 48 mL of PBS. Lymphocytes resuspended in PBS were centrifuged at 250 rcf (1,200 rpm) for 10 minutes with centrifuge break applied. PBS was aspirated and PBMC pellet resuspended in 12.5% Bovine Serum Albumin (BSA) (Sigma-Aldrich, St. Louis, Mo., Catalog No. A9418-5G or equivalent) in RPMI medium (Sigma-Aldrich, St. Louis, Mo., Catalog No. R7388 or equivalent). Stimulator lymphocytes (from C3H, C3B6 and DBA mouse spleens) were irradiated for 2.5 minutes (2,000 RAD) in a cesium irradiator.
One-way MLRs were performed by mixing 1×10^5 lymphocytes from both stimulator and responder cells in a 96-well ELISPOT (eBioscience, San Diego, Calif., Catalog No. 88-7384, or equivalent) capture plate coated with anti-mouse IFN-γ antibody according to manufacturer's protocol. […]

Series [7] concerns CFSE labeled splenic lymphocytes from C3B6 hosts. The series is described as follows: CFSE labeling with flow-based assessment of splenic lymphocyte division in one-way MLR. It is filed as cell-based, mouse. Particulars: day 98 survivor mice. As to the method: Carboxyfluorescein […] succinimidyl ester (CFSE) labeling (Molecular Probes, Carlsbad, Calif., Catalog No. C34554, or equivalent) with flow cytometry detection was employed to assess lymphocyte cell division in response to alloantigen recognition. Briefly, lymphocytes from responders and stimulators were harvested as described above. For this experiment, sources of stimulator cells included C3H, C3B6 and Balb/c mice. Next, lymphocytes from responders were incubated in CFSE prepared according to manufacturer's protocol at 37° C. for 10 minutes. The staining was quenched by the addition of 5 volumes of ice-cold culture media (12.5% Bovine Serum Albumin (BSA) in RPMI) to the lymphocytes. Lymphocytes were incubated on ice for 5 minutes before pelleting by centrifugation. After centrifugation, the lymphocytes were washed by resuspending and pelleting 3 times in fresh culture media. One-way MLRs were performed by mixing 1×10^5 lymphocytes from both stimulator and CFSE responder cells in a 96-well tissue culture plate (Corning Costar, Tewksbury, Mass., Catalog No. CLS3585 or equivalent). […] After 5 days of incubation, the cells were harvested and analyzed using a flow cytometer with 488 nm excitation and emission filters appropriate for fluorescein. […]

The test system of series [8] is small intestinal crypts. The series is described as follows: small intestine tissue sections of 90 day survivor mice. It is filed as in vivo, mouse. The note with it: FIG. 7. The text has this:
(B) Limited inflammation within dashed lines of basal layer and lamina propria, with intact crypts, in 90 day survivor Fasudil® treated mice.

Series [9] has as its system animal models of subarachnoid hemorrhage (SAH). Particulars: cited from earlier work.
Series [10] has as its system SAH patients. Particulars: over 1400 SAH patients; cited from earlier work.
Series [11] relates to C3B6 mice (GVHD model). The series is described as follows: GVHD survival in irradiated C3B6 F1 mice given ATBM and donor T cells. Particulars: ATBM + T cells + Fasudil i.p. and p.o., n = 26.
Series [12] deals with preconstricted rat aorta. Particulars: cited from earlier work.
Series [13] relates to rat model of hypertension. Particulars: cited from earlier work.
The target in series [14] is T1, ROCK II. Particulars: cited from earlier work. This is another data set of the same source.
Series [15] relates to neutrophil migration. Particulars: cited from earlier work.
For series [16] the following is noted: in vivo; cited from earlier work.
In series [17] the test system is ROCK. Particulars: cited from earlier work.
Series [18] has as its system transplant patients (IT GVHD). The note with it: cited from earlier work.

Entries after “also recorded” stand apart in the source; their conditions may differ. Counter-ions that a name gives are not always drawn. Like-named read-outs stand apart in the source and are kept apart here.

T1 sequence (O75116 whole entry): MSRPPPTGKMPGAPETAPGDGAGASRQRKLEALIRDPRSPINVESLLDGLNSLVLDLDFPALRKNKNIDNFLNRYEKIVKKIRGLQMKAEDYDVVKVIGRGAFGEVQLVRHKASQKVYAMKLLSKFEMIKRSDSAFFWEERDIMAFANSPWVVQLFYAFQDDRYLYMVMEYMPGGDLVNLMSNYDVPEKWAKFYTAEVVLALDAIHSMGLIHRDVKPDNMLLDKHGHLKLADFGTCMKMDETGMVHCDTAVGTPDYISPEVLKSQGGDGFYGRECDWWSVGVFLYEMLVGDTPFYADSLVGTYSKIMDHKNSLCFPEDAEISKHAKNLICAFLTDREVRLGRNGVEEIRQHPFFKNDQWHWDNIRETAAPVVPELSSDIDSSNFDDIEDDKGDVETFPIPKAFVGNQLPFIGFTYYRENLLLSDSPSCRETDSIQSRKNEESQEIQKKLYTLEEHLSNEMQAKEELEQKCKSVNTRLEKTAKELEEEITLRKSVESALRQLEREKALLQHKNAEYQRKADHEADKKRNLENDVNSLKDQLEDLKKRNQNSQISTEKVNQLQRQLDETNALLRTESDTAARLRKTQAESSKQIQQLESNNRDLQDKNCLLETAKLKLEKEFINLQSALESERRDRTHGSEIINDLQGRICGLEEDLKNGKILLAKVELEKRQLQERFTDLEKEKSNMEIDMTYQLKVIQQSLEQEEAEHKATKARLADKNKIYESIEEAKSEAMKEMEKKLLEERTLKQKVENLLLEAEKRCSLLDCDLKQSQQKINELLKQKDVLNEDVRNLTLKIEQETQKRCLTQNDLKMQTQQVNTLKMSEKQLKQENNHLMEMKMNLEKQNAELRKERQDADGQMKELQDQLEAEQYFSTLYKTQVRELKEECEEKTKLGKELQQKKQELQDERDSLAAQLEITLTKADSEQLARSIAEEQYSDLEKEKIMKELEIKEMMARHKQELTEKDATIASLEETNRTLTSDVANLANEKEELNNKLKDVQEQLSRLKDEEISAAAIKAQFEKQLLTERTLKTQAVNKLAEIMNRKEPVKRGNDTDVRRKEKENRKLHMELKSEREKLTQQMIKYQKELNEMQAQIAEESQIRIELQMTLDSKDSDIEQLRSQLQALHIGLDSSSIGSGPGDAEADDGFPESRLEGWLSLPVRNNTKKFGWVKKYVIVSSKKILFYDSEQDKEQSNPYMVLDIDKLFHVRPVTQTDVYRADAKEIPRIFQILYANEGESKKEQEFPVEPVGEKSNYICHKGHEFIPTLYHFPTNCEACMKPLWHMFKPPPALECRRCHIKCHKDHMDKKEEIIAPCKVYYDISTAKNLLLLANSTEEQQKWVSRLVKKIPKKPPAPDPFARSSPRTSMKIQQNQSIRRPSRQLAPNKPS
Chain of human ROCK I (Q13464 whole entry): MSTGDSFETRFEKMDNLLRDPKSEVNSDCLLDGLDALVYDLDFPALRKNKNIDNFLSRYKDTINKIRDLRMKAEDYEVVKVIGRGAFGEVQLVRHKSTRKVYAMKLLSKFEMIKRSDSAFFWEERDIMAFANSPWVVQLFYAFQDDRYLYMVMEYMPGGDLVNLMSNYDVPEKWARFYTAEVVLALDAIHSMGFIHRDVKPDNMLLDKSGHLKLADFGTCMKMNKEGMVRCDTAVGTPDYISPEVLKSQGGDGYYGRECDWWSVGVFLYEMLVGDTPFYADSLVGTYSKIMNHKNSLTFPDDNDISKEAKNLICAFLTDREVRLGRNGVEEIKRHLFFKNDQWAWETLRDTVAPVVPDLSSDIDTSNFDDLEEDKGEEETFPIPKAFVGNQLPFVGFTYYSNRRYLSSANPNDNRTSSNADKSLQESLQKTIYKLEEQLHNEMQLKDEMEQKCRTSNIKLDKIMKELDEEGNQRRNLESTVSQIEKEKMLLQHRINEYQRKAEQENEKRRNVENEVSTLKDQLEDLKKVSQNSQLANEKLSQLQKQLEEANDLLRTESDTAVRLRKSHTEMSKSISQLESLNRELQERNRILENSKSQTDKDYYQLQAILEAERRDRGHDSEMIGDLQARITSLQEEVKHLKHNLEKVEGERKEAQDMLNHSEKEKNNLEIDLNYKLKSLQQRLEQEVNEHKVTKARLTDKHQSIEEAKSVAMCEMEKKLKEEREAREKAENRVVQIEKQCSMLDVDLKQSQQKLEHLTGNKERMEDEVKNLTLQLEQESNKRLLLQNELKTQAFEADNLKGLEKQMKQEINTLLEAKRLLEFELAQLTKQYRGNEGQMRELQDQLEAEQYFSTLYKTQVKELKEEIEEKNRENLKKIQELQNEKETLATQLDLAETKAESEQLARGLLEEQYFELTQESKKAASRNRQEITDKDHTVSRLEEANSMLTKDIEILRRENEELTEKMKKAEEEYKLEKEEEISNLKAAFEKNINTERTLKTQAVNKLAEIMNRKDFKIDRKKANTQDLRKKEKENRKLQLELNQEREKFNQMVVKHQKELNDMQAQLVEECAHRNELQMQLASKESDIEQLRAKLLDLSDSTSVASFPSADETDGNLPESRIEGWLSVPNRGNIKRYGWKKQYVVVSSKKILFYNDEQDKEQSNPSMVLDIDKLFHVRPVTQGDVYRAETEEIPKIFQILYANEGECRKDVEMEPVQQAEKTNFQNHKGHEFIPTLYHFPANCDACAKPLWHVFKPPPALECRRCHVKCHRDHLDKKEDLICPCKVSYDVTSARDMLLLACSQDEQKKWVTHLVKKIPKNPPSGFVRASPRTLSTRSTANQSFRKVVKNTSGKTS

Turning to `O=C(Nc1ccc(-c2ccncc2)cc1)N[C@H](CO)c1ccccc1` [AS 1892802], the IC50 is 122 nM in [1] and 52 nM in [2]. In addition, the analgesic effects result in series [3] is “exhibits analgesic effects”.
For `O=S(=O)(c1cccc2cnccc12)N1CCCNCC1` [Fasudil®, Fasudil], the “mice developing clinically observable diarrhea” value in [4] (between second and third weeks post-transplant) was “less than 20%”. This compound gave a weight loss in [4] (first three weeks post-transplant, roughly the same as ATBM+T cells mice) of approximately 25 % total body weight. The subsequent weight recovery result in [4] (most experiments, data not shown) is listed as “recovered more weight than ATBM+T cells recipient mice”. Besides, in series [5], the skin inflammation entry is “did not prevent skin inflammation”. Further, the “Day 10 IFN-γ secreting spleen cell frequencies” value in [6] (Concanavalin A positive control) is given as 120.0 per 100,000 cells; in series [6] (irradiated stimulators C3B6F1 (host), 4 day one-way MLR) it was 115.6 per 100,000 cells; in series [6] (irradiated stimulators C3H (self), 4 day one-way MLR) it was 2.3 per 100,000 cells; in series [6] (irradiated stimulators DBA (third party), 4 day one-way MLR), 18 per 100,000 cells. Moreover, the “spleen cell division in response to B6C3F1 stimulation” value in series [7] (FIG. 6-E) was “strongly responded to B6C3F1 stimulation”. In addition, the “spleen cell division in response to Balb/c stimulation” value in [7] (FIG. 6-F) is “comparable to their response to Balb/c”. Besides, the “small intestinal crypt inflammation” value in series [8] was “minimal small intestinal crypt inflammation”. Further, the “blood vessel spasm and constriction after subarachnoid bleeding” value in [9] is “effective in reversing blood vessel spasm and constriction”. Moreover, in [10], the tolerability and safety result is “well tolerated and safe”. The results for the “Survival Rate (95% CI), 90 day” value in [11] and in [11] (listed as Fasudil ®) were 73% and 73% (55%-88%), respectively.
Take `CCn1c(-c2nonc2N)nc2cnc(Oc3cccc(NC(=O)c4ccc(OCCN5CCOCC5)cc4)c3)cc21` [GSK 269962]: the vasorelaxation result in series [12] is “induce vasorelaxation”. In series [13], the blood pressure result is listed as “lower blood pressure”.
For `Cc1cncc2cccc(S(=O)(=O)N3CCCN(C(=O)CN)C[C@@H]3C)c12` [Glycyl-H-1152 dihydrochloride], in [14], the IC50 is 11.8 nM.
Regarding `Cl.O=c1[nH]ccc2c(S(=O)(=O)N3CCCNCC3)cccc12` [HA 1100 hydrochloride], the neutrophil migration result in series [15] is recorded as “inhibit neutrophil migration”. In addition, the vasodilatory effects entry in [16] is given as “potent vasodilatory effects”.
`c1ccc2c(-c3ccncc3)c[nH]c2c1` [Rockout®]: the IC50 in series [17] (ATP-competitive, reversible) was 25000 nM. The “effect on the activation of ROCK” value in series [17] was “does not inhibit the activation of ROCK”.
As to maraviroc, the “IT GVHD and acute (within 100 days) death” value in [18] is “prevented IT GVHD and acute (within 100 days) death; also recorded: no acute deaths”.
